Data from patent US20190352276A1, “INHIBITORS OF BRUTON'S TYROSINE KINASE” (Joint Stock Company "Biocad", priority 2016, published 2019).

System: Caco-2 cells
Assay: Permeability through the monolayer of Caco-2 cells
Type: in vitro ADME
Summary of the method: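 Caco-2 monolayers grown 21 days on 0.4 μm transwell filters, integrity checked with Lucifer Yellow. Compounds at 10 μM were added apically at pH 6.5 (A→B) or basolaterally at pH 7.4 with 1% BSA (B→A) and sampled after 2 h. Concentrations by HPLC; Papp calculated, efflux ratio as Papp B-A/Papp A-B.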

Compound | efflux (Papp B-A/Papp A-B)
C=CC(=O)N1CCC[C@@H](n2nc(-c3ccc(Oc4ccncc4C#N)cc3)c3cncc(Cl)c32)C1 [BCD-BTK-202, (R)-4-(4-(1-(1-acryloylpiperidin-3-yl)-7-chloro-1H-pyrazolo[4,3-c]pyridin-3-yl)phenoxy)nicotinonitrile] | 0.09
C=CC(=O)N1CCC[C@@H](n2nc(-c3cnc(C(=O)Nc4cc(C(F)(F)CCC)ccn4)nc3)c3cncc(Cl)c32)C1 [BCD-BTK-292, (R)-5-(1-(1-acryloylpiperidin-3-yl)-7-chloro-1H-pyrazolo[4,3-c]pyridin-3-yl)-N-(4-(1,1-difluorobutyl)pyridin-2-yl)pyrimidine-2-carboxamide] | 0.006
